Results as given in patent US20240018120A1, “MAGL INHIBITORS” (H. LUNDBECK A/S, priority 2020, published 2024).

How the values were obtained:
MAGL [1] = target: T1, MAGL (Homo sapiens, UniProt Q99685); test: In vitro competitive activity-based protein profiling, PC3 human cell membrane proteomes; format: biochemical; design: endogenous in cells; host or cells: PC3 human cells (membrane proteome); settings: human PC3 membrane proteome
T1 sequence (Q99685 1-303): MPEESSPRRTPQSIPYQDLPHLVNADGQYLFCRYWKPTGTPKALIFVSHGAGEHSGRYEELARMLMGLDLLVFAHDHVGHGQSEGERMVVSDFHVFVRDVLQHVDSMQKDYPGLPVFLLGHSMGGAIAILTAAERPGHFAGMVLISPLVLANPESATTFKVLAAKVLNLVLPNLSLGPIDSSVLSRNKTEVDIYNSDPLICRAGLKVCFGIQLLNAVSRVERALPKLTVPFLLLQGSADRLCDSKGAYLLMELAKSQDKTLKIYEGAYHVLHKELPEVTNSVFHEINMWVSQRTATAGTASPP
Method in brief: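 Competitive ABPP in PC3 membrane proteome (2.0 mg/mL protein): inhibitors preincubated 30 min at 37° C, then JW912-Bodipy probe added for 30 min at room temperature. MAGL band fluorescence after SDS-PAGE normalised to DMSO; IC50 from 4-parameter sigmoidal fit.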

MAGL [2] = target: T1, MAGL; test: In vitro competitive substrate hydrolysis enzyme activity assay (pNPA), HEK293 cell lysates; format: biochemical; design: expressed in transfected cells; host or cells: HEK293; settings: HEK293 lysate
Method in brief: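 Lysates of HEK293 cells expressing human MAGL (~1.2 μg protein) preincubated 30 min at 25° C with inhibitor in 50 mM HEPES pH 7.0, 200 mM KCl, 1 mM EDTA. pNPA substrate then added (2× stock 2.5 mM), and A405 followed for 20 min at 25° C. Rates normalized to DMSO, and IC50 from 4-parameter fit.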

[3] = test system: rat formalin paw model of inflammatory pain; test: Rat formalin paw model of inflammatory pain; format: in vivo; settings: 0.6 mg/kg, 3 mg/kg and 10 mg/kg oral, 4 h pre-test; early and/or late phases; vs vehicle
Description: In the rat formalin paw model formalin is administered into the right […] of a rat in order to induce pain (observed by hind limb licking duration and frequency).
Male Sprague Dawley rats were divided into three cohorts to enable testing in the Laboras™ equipment to be carried out over three days in a balanced design to give treatment groups of 10. On the day of the study, male Sprague Dawley rats were weighed, tail marked and dosed orally with vehicle, test compound (0.1, 0.3, 0.6, 1, 3 or 10 mg/kg) or pregabalin (30 mg/kg) 4 h pre-test using a 5 mL/kg dosing volume. For Example 6 the vehicle used was 0.5% methylcellulose in water and for Example 8 the vehicle used was 20% HP-b-CD. Up to six animals were dosed at a time. After 4 h, rats received an intraplantar injection of 50 μL of a 2.5% v/v formalin solution into the right hind paw. Rats were immediately placed into the Laboras™ cages and data acquisition started. The primary measures recorded by Laboras™ for the formalin paw model are hind limb licking duration and frequency. Locomotion is also reported as maximum speed, average speed when moving or over the whole-time bin and distance travelled. After 40 min, when data acquisition was complete, rats were removed from the cages.
On removal from the test cages, rats were anaesthetised with the gaseous anaesthetic isoflurane (5% v/v isoflurane in oxygen) and blood samples were collected by cardiac puncture. Brains were then removed, rinsed in phosphate buffered saline (PBS), hemi-sected and frozen separately in liquid nitrogen.
Data were analysed with Statistica software (TIBCO, USA version 11.1). All data are expressed as means±standard error of the mean (sem) to one decimal place. […] Time course data were analysed by repeated measures analysis of variance (ANOVA) followed by one-way ANOVAs at each time point and subsequent Dunnett's post hoc tests. […]

[4] = test system: kainic acid seizure model; test: Kainic acid seizure model in the rat; format: in vivo
Description: Kainic acid is an analog of the excitatory neurotransmitter, glutamate and acts as an agonist of kainic acid receptors. After systemic injection, kainic acid induces prolonged excitatory responses with many of the features of human temporal lobe epilepsy.
Rats, placed in individual Plexiglas cages (33×21×18 cm), are injected with kainic acid (20 mg/kg i.p.). The occurrences of the following symptoms are noted over a 120-minute period 30 minutes after kainic acid injection: forelimb clonus, rearings and rearings with falling, clonic convulsions, tonic convulsions and death. The presence of each symptom and the latencies to the first appearance of the symptoms are measured. The number of forelimb clonus is counted.
12 rats are studied per group. The test is performed partially blind.
The test substances will be evaluated at multiple doses, administered p.o. 240 minutes before the test, and compared with the corresponding vehicle control group (Group 2, administered with 10% HP-b-CD in distilled water, p.o. 240 minutes before the test).
Example 6 was evaluated at 0.3, 1, 3 and 10 mg/kg, and Example 8 was evaluated at 1, 3 and 10 mg/kg, administered p.o. 4 hours before the test, and compared with a vehicle control group (administered with 10% HP-b-CD, p.o. 4 hours before the test).
Diazepam (16 mg/kg) used as reference substance, was administered p.o. 60 minutes before the test (0.5% HP-b-CD) and was compared with vehicle controls.
Quantitative data (latencies) with the test substance was analyzed by comparing treated groups with vehicle control using Kruskal-Wallis test followed by Mann-Whitney U test. Quantitative data with the reference substance will be analysed using Mann-Whitney U test.
Quantal data (frequencies) were analyzed by comparing treated groups with vehicle control using Fisher's Exact Probability tests.

O=C(Nc1cccnn1)[C@H]1CC12CCN(C(=O)OC(C(F)(F)F)C(F)(F)F)CC2 [Example 6, 1,1,1,3,3,3-Hexafluoropropan-2-yl (S)-1-(pyridazin-3-ylcarbamoyl)-6-azaspiro[2.5]octane-6-carboxylate]
IC50 (MAGL [1]): 0.0046 µM | IC50 (MAGL [2]): 0.00826 µM | measure of spontaneous pain (hind limb licking frequency) [3]: statistically significant reduction | anticonvulsant effects in the kainic acid seizure test ([4]; dose-range 0.3-10 mg/kg p.o., 4 hours before the test, rat): clear anticonvulsant effects | magnitude of the effects in the kainic acid seizure test compared with reference ([4]; middle-high doses, reference Diazepam 16 mg/kg p.o.): close to those observed with the reference substance, Diazepam
